# In PubChem BioAssay AID2423 (Broad Institute, 2010):
# Values joined by “and” are separate entries in the source; they are usually repeats but may differ in a detail not shown here. Identical values can stand only once. Results filed as inconclusive are left out. Active and inactive are the calls of the source. The rule behind the calls is not given here.
# Test system: C. albicans CaCi-8 + fluconazole, Alamar Blue growth, 48 h
# Assay: resistant C. albicans growth inhibition with fluconazole, dose response, CaCi-8 strain, Alamar Blue fluorescence (AID 2423)
row,SMILES,EC50
1,O=C(N/N=C/c1cc([N+](=O)[O-])ccc1O)C(O)(c1ccccc1)c1ccccc1,5790 nM
2,O=C(Cc1nc2ccccc2s1)c1ccc(O)cc1O,2860 nM
3,Cc1ccc(S(=O)(=O)CC2CSc3nc4ccccc4n32)cc1 (centres undefined),2520 nM
4,Cc1[nH]nc(-c2ccc(O)c(C)c2O)c1-c1cnn(-c2ccccc2)c1,3960 nM
5,Cc1ccc(C2=NNC3(CCOC(C)(C)C3)S2)cc1 (centres undefined),14800 nM
6,Cc1cc(Sc2ncnc(N)c2[N+](=O)[O-])ncn1,659 nM
7,CCCCCc1ccc(-c2ccc(/C=C/C(=O)O)cc2)nc1,957 nM
8,CCOc1ccccc1C(=O)Nc1ccc2nc3n(c(=O)c2c1)CCCCC3,2510 nM
9,COc1ccc(C)cc1N=Nc1ccc(O)c2ncccc12,656 nM
10,Cc1[nH]n(C(N)=S)c(=O)c1N=Nc1ccc(S(=O)(=O)N2CCCCCC2)cc1,9480 nM
11,O=C(/C=C/c1cc(Br)ccc1O)c1ccco1,458 nM
12,O=[N+]([O-])c1ccc(C(=Nc2cccc3ccccc23)N2CCOCC2)cc1,1350 nM
13,C(C#CCCCCCCCCC[n+]1ccccc1)#CCCCCCCCCC[n+]1ccccc1,3520 nM
14,CC1CCC(C(C)C)C(OC(=O)Cn2c(-c3ccc(Br)cc3)[n+](C)c3ccccc32)C1 (centres undefined),534 nM and 752 nM
15,Cc1nn(-c2ccccc2)c(C)c1C(=O)OC/C(O)=C(\C#N)c1nc2ccccc2[nH]1,1030 nM
16,CCCOc1ccc(C(=O)NNC(=S)NC(C)=O)cc1,1670 nM
17,CCOc1cccc(-c2cc(-c3n[nH]c(=S)n3CC)c3ccccc3n2)c1,4000 nM
18,COc1ccc(CNCCNC(=O)c2ccco2)c(OC)c1OC,> 16000 nM (inactive)
19,CCNC(=S)NNC(=O)c1cc(-c2ccc(OC)cc2)nc2ccccc12,4380 nM
